Test results taken from US6358885B1, “Substituted phenylheterocyclic herbicides” (Mississippi State University, priority 1992, dated 2002).

Tests used:
chickweed = assay: Test B preemergence/postemergence greenhouse plant response rating 0 to 10; assay type: in vivo, Stellaria media; conditions: POSTEMERGENCE
Outline: (§1)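 Test chemicals, dissolved in a non-phytotoxic solvent, were applied to soil at planting and, at the same time, over foliage of seedlings at the one to four leaf stage.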

barley = assay: as above; assay type: in vivo, Hordeum vulgare; conditions: for Plant response rating, Barley: 0 to 10 scale
Outline: as §1

crabgrass = assay: Test C preemergence/postemergence greenhouse plant response rating 0 to 100; assay type: in vivo, Digitaria sanguinalis; conditions: POSTEMERGENCE
Outline: (§2)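 Compounds in non-phytotoxic solvent applied preemergence to sandy loam one day after planting, postemergence at the 1–4 leaf stage, or to ~2.5 cm floodwater over silt loam.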

velvetleaf = assay: Test B preemergence/postemergence greenhouse plant response rating 0 to 10; assay type: in vivo, Abutilon theophrasti; conditions: 0 to 10 scale
Outline: as §1

bedstraw = assay: Test C preemergence/postemergence greenhouse plant response rating 0 to 100; assay type: in vivo, Galium aparine; conditions: POSTEMERGENCE
Outline: as §2

wild oat = assay: as above; assay type: in vivo, Avena fatua; conditions: POSTEMERGENCE
Outline: as §2

purple nutsedge = assay: Test B preemergence/postemergence greenhouse plant response rating 0 to 10; assay type: in vivo, Cyperus rotundus; conditions: 0 to 10 scale
Outline: as §1

sugar beet = assay: as above; assay type: in vivo, Beta vulgaris; conditions: 0 to 10 scale
Outline: as §1

rape = assay: Test C preemergence/postemergence greenhouse plant response rating 0 to 100; assay type: in vivo, Brassica napus; conditions: POSTEMERGENCE
Outline: as §2

wheat = assay: as above; assay type: in vivo, Triticum aestivum; conditions: POSTEMERGENCE
Outline: as §2

ryegrass = assay: as above; assay type: in vivo, Lolium multiflorum; conditions: POSTEMERGENCE
Outline: as §2

corn [1] = assay: Test B preemergence/postemergence greenhouse plant response rating 0 to 10; assay type: in vivo, Zea mays; conditions: for Plant response rating, Corn: 0 to 10 scale
Outline: as §1

morningglory = assay: Test C preemergence/postemergence greenhouse plant response rating 0 to 100; assay type: in vivo, Ipomoea hederacea; conditions: POSTEMERGENCE
Outline: as §2

sorghum = assay: Test B preemergence/postemergence greenhouse plant response rating 0 to 10; assay type: in vivo, Sorghum bicolor; conditions: 0 to 10 scale
Outline: as §1

barnyardgrass = assay: as above; assay type: in vivo, Echinochloa crus-galli; conditions: for Plant response rating, Barnyardgrass: 0 to 10 scale
Outline: as §1

blackgrass = assay: as above; assay type: in vivo, Alopecurus myosuroides; conditions: for Plant response rating, Blackgrass: 0 to 10 scale
Outline: as §1

rice = assay: Test C flood test plant response rating 0 to 100; assay type: in vivo, Oryza sativa
Description: The compounds evaluated in this test were formulated in a non-phytoxic solvent and applied to the soil surface before plant seedlings emerged (preemergence application), to water that covered the soil surface (flood application), and to plants that were in the one-to-four leaf stage (postemergence application). A sandy loam soil was used for the preemergence and postemergence tests, while a silt loam soil was used in the flood test. Water depth was approximately 2.5 cm for the flood test and was maintained at this level for the duration of the test. Plant species in the preemergence and postemergence tests consisted of barley (Hordeum vulgare), bedstraw (Galium aparine), blackgrass (Alopecurus myosuroides), chickweed (Stellaria media), corn (Zea mays), cotton (Gossypium hirsutum), crabgrass (Digitaria sanguinalis), downy brome (Bromus tectorum), giant foxtail (Setaria faberii), lambsquarters (Chenopodium album), morningglory (Ipomoea hederacea), pigweed ([…]), rape (Brassica napus), ryegrass (Lolium multiflorum), sorghum (Sorghum bicolor), soybean (Glycine max), speedwell (Veronica persica), sugar beet (Beta vulgaris), velvetleaf (Abutilon theophrasti), wheat (Triticum aestivum), wild buckwheat (Polygonum convolvulus), and wild oat (Avena fatua). All plant species were planted one day before application of the compound for the preemergence portion-of this test. Plantings of these species were adjusted to produce plants of appropriate size for the post-emergence portion of the test. […] All plant species were grown using normal greenhouse practices. Visual evaluations of injury expressed on treated plants, when compared to untreated controls, were recorded approximately fourteen to twenty one days after application of the test compound. […] A dash (-) response means no test result.

corn [2] = assay: Test C preemergence/postemergence greenhouse plant response rating 0 to 100; assay type: in vivo, Zea mays; conditions: POSTEMERGENCE
Outline: as §2

CC(C)N1C(=O)COc2cc(F)c(-c3nn4c(c3Cl)CCCC4)cc21 [Compound 31]
100: Plant response rating, Bedstraw (bedstraw; 62 g/ha, 0 to 100 scale) | Plant response rating (0 to 100), Bedstraw (bedstraw; Rate 16 g/ha) | Plant response rating, Rape (rape; 62 g/ha, 0 to 100 scale) | Plant response rating, Morningglory (morningglory; 62 g/ha, 0 to 100 scale) | Plant response rating (0 to 100), Morningglory (morningglory; Rate 4 g/ha) | Plant response rating (0 to 100), Morningglory (morningglory; Rate 16 g/ha)
85: Plant response rating (0 to 100), Bedstraw (bedstraw; Rate 4 g/ha)
4: Plant response rating, Corn (corn [1]; POSTEMERGENCE, Rate 10 g/ha) | Plant response rating, Sorghum (sorghum; POSTEMERGENCE, Rate 50 g/ha) | Plant response rating, Barnyardgrass (barnyardgrass; POSTEMERGENCE, Rate 10 g/ha) | Plant response rating, Blackgrass (blackgrass; POSTEMERGENCE, Rate 10 g/ha) | Plant response rating (0 to 10 scale), Blackgrass (blackgrass; POSTEMERGENCE, Rate 50 g/ha)
3: Plant response rating (0 to 10 scale), Corn (corn [1]; POSTEMERGENCE, Rate 50 g/ha) | Plant response rating, Barnyardgrass (barnyardgrass; PREEMERGENCE, Rate 50 g/ha) | Plant response rating, Blackgrass (blackgrass; PREEMERGENCE, Rate 10 g/ha)
50: Plant response rating, Crabgrass (crabgrass; 62 g/ha, 0 to 100 scale) | Plant response rating, Wild oat (wild oat; 62 g/ha, 0 to 100 scale) | Plant response rating Rice Japonica (rice; flood test species listed under POSTEMERGENCE, 62 g/ha, 0 to 100 scale) | Plant response rating, Corn (corn [2]; 62 g/ha, 0 to 100 scale)
95: Plant response rating (0 to 100), Rape (rape; Rate 16 g/ha)
10: Plant response rating, Chickweed (chickweed; Rate 10 g/ha, 0 to 10 scale) | Plant response rating (0 to 10 scale), Chickweed (chickweed; Rate 50 g/ha) | Plant response rating (0 to 100), Crabgrass (crabgrass; Rate 1 g/ha) | Plant response rating, Velvetleaf (velvetleaf; POSTEMERGENCE, Rate 10 g/ha) | Plant response rating, Velvetleaf (velvetleaf; POSTEMERGENCE, Rate 50 g/ha) | Plant response rating (0 to 100), Wild oat (wild oat; Rate 1 g/ha) | Plant response rating, Sugar beet (sugar beet; POSTEMERGENCE, Rate 10 g/ha) | Plant response rating, Sugar beet (sugar beet; POSTEMERGENCE, Rate 50 g/ha) | Plant response rating, Sugar beet (sugar beet; PREEMERGENCE, Rate 50 g/ha) | Plant response rating (0 to 100), Wheat (wheat; Rate 1 g/ha) | Plant response rating (0 to 100), Ryegrass (ryegrass; Rate 1 g/ha)
40: Plant response rating, Wheat (wheat; 62 g/ha, 0 to 100 scale) | Plant response rating Ryegrass (ryegrass; 62 g/ha, 0 to 100 scale) | Plant response rating (0 to 100), Corn (corn [2]; Rate 16 g/ha)
2: Plant response rating, Nutsedge (purple nutsedge; POSTEMERGENCE, Rate 10 g/ha)
30: Plant response rating (0 to 100), Crabgrass (crabgrass; Rate 16 g/ha) | Plant response rating (0 to 100), Wild oat (wild oat; Rate 4 g/ha) | Plant response rating (0 to 100), Wild oat (wild oat; Rate 16 g/ha) | Plant response rating (0 to 100), Rape (rape; Rate 1 g/ha) | Plant response rating (0 to 100), Wheat (wheat; Rate 4 g/ha) | Plant response rating (0 to 100), Wheat (wheat; Rate 16 g/ha) | Plant response rating (0 to 100), Ryegrass (ryegrass; Rate 16 g/ha) | Plant response rating (0 to 100), Corn (corn [2]; Rate 4 g/ha)
0: Plant response rating, Barley (barley; PREEMERGENCE, Rate 10 g/ha) | Plant response rating, Barley (barley; PREEMERGENCE, Rate 50 g/ha) | Plant response rating, Nutsedge (purple nutsedge; PREEMERGENCE, Rate 50 g/ha) | Plant response rating, Corn (corn [1]; PREEMERGENCE, Rate 50 g/ha) | Plant response rating, Sorghum (sorghum; PREEMERGENCE, Rate 50 g/ha) | Plant response rating, Barnyardgrass (barnyardgrass; PREEMERGENCE, Rate 10 g/ha) | Plant response rating (0 to 100), Rice Japonica (rice; POSTEMERGENCE section, flood test, Rate 1 g/ha) | Plant response rating (0 to 100), Rice Japonica (rice; POSTEMERGENCE section, flood test, Rate 4 g/ha)
6: Plant response rating (0 to 10 scale), Barnyardgrass (barnyardgrass; POSTEMERGENCE, Rate 50 g/ha) | Plant response rating, Blackgrass (blackgrass; PREEMERGENCE, Rate 50 g/ha)
75: Plant response rating (0 to 100), Bedstraw (bedstraw; Rate 1 g/ha)
5: Plant response rating, Barley (barley; POSTEMERGENCE, Rate 10 g/ha) | Plant response rating (0 to 10 scale), Barley (barley; POSTEMERGENCE, Rate 50 g/ha) | Plant response rating, Nutsedge (purple nutsedge; POSTEMERGENCE, Rate 50 g/ha) | Plant response rating, Sorghum (sorghum; POSTEMERGENCE, Rate 10 g/ha)
9: Plant response rating, Velvetleaf (velvetleaf; PREEMERGENCE, Rate 50 g/ha)
35: Plant response rating (0 to 100), Rice Japonica (rice; Rate 16 g/ha, under POSTEMERGENCE head (flood test species))
20: Plant response rating (0 to 100), Crabgrass (crabgrass; Rate 4 g/ha) | Plant response rating (0 to 100), Ryegrass (ryegrass; Rate 4 g/ha) | Plant response rating (0 to 100), Corn (corn [2]; Rate 1 g/ha)
70: Plant response rating (0 to 100), Morningglory (morningglory; Rate 1 g/ha)
60: Plant response rating (0 to 100), Rape (rape; Rate 4 g/ha)
